Starred links: 1 amine or outer side, 2 acyl side, 3 side chain; linkers in the order of their positions; H or OH if unused. Non-standard residues stand in square brackets, D forms with d. Residues, ends and D or L forms follow the SMILES beside them. ξ: configuration not given here. *: point of attachment. Tetrahydroisoquinolin(2-yl) = c1ccc2c(c1)CCN(*)C2; NH(1S-phenylpropyl) = CC[C@H](N*)c1ccccc1; NH(1S-phenylethyl) = C[C@H](N*)c1ccccc1; X21 = CCCN(N*)C(=O)CCc1nc(-c2ccccn2)no1; X11 = CCCN(N*)C(=O)[C@H](O)c1ccccc1; X20 = O=C(N(CC(F)(F)F)N[*:1])[*:2]; X1 = CCCC(N*)C(=O)C(F)(F)C(F)(F)F; X15 = CCCC(N[*:1])C(=O)C(=O)[*:2]; Hyp = O=C(O)[C@@H]1C[C@@H](O)CN1; NHPiperonyl = c1cc2c(cc1CN*)OCO2; azaNva = CCCN(N[*:1])C(=O)[*:2]; X10 = C=CCN(N[*:1])C(=O)[*:2]; X18 = CCCN(N*)C(=S)NCc1ccccc1; NMe(benzyl) = CN(Cc1ccccc1)*; Suc = O=C(CCC(=O)[*:2])[*:1]; X12 = C[C@H](N*)c1nnn[nH]1; Nva = CCC[C@H](N)C(=O)O; X14 = c1ccc2c(c1)CCN2*; X16 = CCCCN(N*)C(N)=O; NHBn = c1ccc(CN*)cc1; X13 = CCCN(N*)C(N)=O; ξNva = CCCC(N)C(=O)O; Bn = c1ccc(C*)cc1
Molecular target: T1, HCV NS3 protease type 1b/NS4A cofactor peptide (Hepatitis C virus genotype 1b, UniProt P26663)
T1 construct: recombinant HCV NS3 protease (amino acid 1027 to 1206) was cloned; made in house; host or cells: E. coli BL21(DE3)pLysS
Assay: biochemical
Design: species or system hepatitis C virus (HCV) genotype 1b
Settings: not given
Description: a) Cloning, expression and purification of the recombinant HCV NS3 protease type lb
Serum from an HCV-infected patient was obtained through an external collaboration (Bernard Willems MD, Hopital St-Luc, Montreal, Canada and Dr. Donald Murphy, Laboratoire de Sante Publique du Quebec, Ste-Anne de Bellevue, Canada). An engineered full-length cDNA template of the HCV genome was constructed from DNA fragments obtained by reverse transcription-PCR (RT-PCR) of serum RNA and using specific primers selected on the basis of homology between other genotype lb strains. […] A DNA fragment encoding the polyprotein precursor (NS3/NS4A/NS4B/NS5A/NS5B) was generated by PCR and introduced into eucaryotic expression vectors.
The NS3 protease expression in E. coli BL21(DE3)pLysS was induced by incubation with 1 mM IPTG for 3 h at 22° C. […] The cells were resuspended in lysis buffer (3.0 mL/g) consisting of 25 mM sodium phosphate, pH 7.5, 10% glycerol (v/v), 1 mM EDTA, 0.01% NP-40 and stored at -80° C. Cells were thawed and homogenized following the addition of 5 mM DTT. Magnesium chloride and DNase were then added to the homogenate at final concentrations of 20 mM and 20 μg/mL respectively. After a 25 min incubation at 4° C., the homogenate was sonicated and centrifuged at 15000× g for 30 min at 4° C. The pH of the supernatant was then adjusted to 6.5 using a 1M sodium phosphate solution.
Briefly, the supernatant from the bacterial extract was loaded on a SP HiTrap column (Pharmacia) previously equilibrated at a flow rate of 2 mL/min in buffer A (50 mM sodium phosphate, pH 6.5, 10% glycerol, 1 mM EDTA, 5 mM DTT, 0.01% NP-40). The column was then washed with buffer A containing 0.15 M NaCl and the protease eluted by applying 10 column volumes of a linear 0.15 to 0.3 M NaCl gradient. NS3 protease-containing fractions were pooled and diluted to a final NaCl concentration of 0.1 M. The enzyme was further purified on a HiTrap Heparin column (Pharmacia) equilibrated in buffer B (25 mM sodium phosphate, pH 7.5, 10% glycerol, 5 mM DTT, 0.01% NP-40). The sample was loaded at a flow rate of 3 mL/min. The column was then washed with buffer B containing 0.15 M NaCl at a flow rate of 1.5 mL/min. Two step washes were performed in the presence of buffer B containing 0.3 or 1M NaCl. […] Finally, the NS3 protease-containing fractions were applied on a Superdex 75 HiLoad 16/60 column (Pharmacia) equilibrated in buffer B containing 0.3 M NaCl.
The enzyme was stored at -80° C. and was thawed on ice and diluted just prior to use.
Recombinant HCV NS3 Protease/NS4A Cofactor Peptide Radiometric Assay
The enzyme was stored at -80° C., thawed on ice and diluted just prior to use in the assay buffer containing the NS4A cofactor peptide.
The substrate used for the NS3 protease/[…] cofactor peptide radiometric assay, DDIVPC-SMSYTW, is cleaved between the cysteine and the serine residues by the enzyme. The sequence DDIVPC-SMSYTW corresponds to the NS5A/NS5B natural cleavage site in which the cysteine residue in […] has been substituted for a proline. […] (molar ratio enzyme: cofactor 1:100) in the absence or presence of inhibitors. The separation of substrate from products is performed by adding avidin-coated agarose beads to the assay mixture followed by filtration.
Assay buffer: 50 mM Tris HCl, pH 7.5, 30% (w/v) glycerol, 1 mg/mL BSA, 1 mM TCEP (TCEP added just prior to use from a 1 M stock solution in water)
Substrate: […], […] final concentration (from a 2 mM stock solution in DMSO stored at -20° C. to avoid oxidation).

T1 sequence (P26663 1027-1206, other chains not shown): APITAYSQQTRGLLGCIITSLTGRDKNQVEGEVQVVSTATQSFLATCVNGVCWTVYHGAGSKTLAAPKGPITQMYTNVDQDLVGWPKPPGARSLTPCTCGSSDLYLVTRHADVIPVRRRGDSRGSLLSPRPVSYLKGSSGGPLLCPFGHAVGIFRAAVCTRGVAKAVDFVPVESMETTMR

Compound | IC50 [µM]
CC[C@H](C)[C@H](NC(=O)[C@@H](CCC(=O)O)NC(=O)[C@H](CC(=O)O)NC(C)=O)C(=O)N[C@H](C(=O)N1C[C@H](OCc2ccccc2)C[C@H]1C(=O)NN(CC(F)(F)F)C(=O)N[C@@H](C)c1ccccc1)C(C)C [Compound 228] (Ac-D[dE]IV[Hyp](Bn)[X20]-{NH(1S-phenylethyl)}) | 0.63
CCC[C@H](NC(=O)[C@@H]1C[C@@H](OCc2ccccc2)CN1C(=O)[C@@H](NC(=O)[C@@H](NC(=O)[C@@H](CCC(=O)O)NC(=O)[C@H](CC(=O)O)NC(C)=O)[C@@H](C)CC)C(C)C)C(=O)NCc1ccccc1 [Compound 107] (Ac-D[dE]IV[Hyp](Bn)[Nva]-NHBn) | 3
CCCN(NC(=O)[C@@H]1C[C@@H](OCc2ccccc2)CN1C(=O)[C@@H](NC(=O)[C@@H](NC(=O)[C@@H](CCC(=O)O)NC(=O)[C@H](CC(=O)O)NC(C)=O)[C@@H](C)CC)C(C)C)C(=S)NCc1ccccc1 [Compound 224] (Ac-D[dE]IV[Hyp](Bn)-X18) | 5
CCCN(NC(=O)[C@@H]1C[C@@H](OCc2ccccc2)CN1C(=O)[C@@H](NC(=O)[C@@H](NC(=O)[C@@H](CCC(=O)O)NC(=O)[C@H](CC(=O)O)NC(C)=O)[C@@H](C)CC)C(C)C)C(=O)N[C@@H](CC)c1ccccc1 [Compound 214] (Ac-D[dE]IV[Hyp](Bn)[azaNva]-{NH(1S-phenylpropyl)}) | 0.44
CCCN(NC(=O)[C@@H]1C[C@@H](OCc2ccccc2)CN1C(=O)[C@@H](NC(=O)[C@@H](NC(=O)[C@@H](CCC(=O)O)NC(=O)[C@H](CC(=O)O)NC(C)=O)[C@@H](C)CC)C(C)C)C(=O)CCc1nc(-c2ccccn2)no1 [Compound 232] (Ac-D[dE]IV[Hyp](Bn)-X21) | 3.2
CCCN(NC(=O)[C@@H]1C[C@@H](OCc2ccccc2)CN1C(=O)[C@@H](NC(=O)[C@@H](NC(=O)[C@@H](CCC(=O)O)NC(=O)[C@H](CC(=O)O)NC(C)=O)[C@@H](C)CC)C(C)C)C(=O)NCc1ccc2c(c1)OCO2 [Compound 231] (Ac-D[dE]IV[Hyp](Bn)[azaNva]-NHPiperonyl) | 0.5
CCCN(NC(=O)[C@@H]1C[C@@H](OCc2ccccc2)CN1C(=O)[C@@H](NC(=O)[C@@H](NC(=O)[C@@H](CCC(=O)O)NC(=O)[C@H](CC(=O)O)NC(C)=O)[C@@H](C)CC)C(C)C)C(=O)NCC(=O)O [Compound 207] (Ac-D[dE]IV[Hyp](Bn)[azaNva]G-OH) | 3.75
CCCN(NC(=O)[C@@H]1C[C@@H](OCc2ccccc2)CN1C(=O)[C@@H](NC(=O)[C@@H](NC(=O)[C@@H](CCC(=O)O)NC(=O)[C@H](CC(=O)O)NC(C)=O)[C@@H](C)CC)C(C)C)C(=O)N[C@@H](C)c1nnn[nH]1 [Compound 233] (Ac-D[dE]IV[Hyp](Bn)[azaNva]-X12) | 1.5
CCCCN(NC(=O)[C@@H]1C[C@@H](OCc2ccccc2)CN1C(=O)[C@@H](NC(=O)[C@@H](NC(=O)[C@@H](CCC(=O)O)NC(=O)[C@H](CC(=O)O)NC(C)=O)[C@@H](C)CC)C(C)C)C(N)=O [Compound 211] (Ac-D[dE]IV[Hyp](Bn)-X16) | 47
CCCC(NC(=O)[C@@H]1C[C@@H](OCc2ccccc2)CN1C(=O)[C@@H](NC(=O)[C@@H](NC(=O)[C@@H](CCC(=O)O)NC(=O)[C@H](CC(=O)O)NC(C)=O)[C@@H](C)CC)C(C)C)C(=O)C(F)(F)C(F)(F)F (some centres unmarked) [Compound 102] (Ac-D[dE]IV[Hyp](Bn)-X1) | 0.21
CCCC(NC(=O)[C@@H]1C[C@@H](OCc2ccccc2)CN1C(=O)[C@@H](NC(=O)[C@@H](NC(=O)[C@@H](CCC(=O)O)NC(=O)[C@H](CC(=O)O)NC(C)=O)[C@@H](C)CC)C(C)C)C(=O)C(=O)NCc1ccccc1 (some centres unmarked) [Compound 103] (Ac-D[dE]IV[Hyp](Bn)[X15]-NHBn) | 0.023
C=CCN(NC(=O)[C@@H]1C[C@@H](OCc2ccccc2)CN1C(=O)[C@@H](NC(=O)[C@@H](NC(=O)[C@@H](CCC(=O)O)NC(=O)[C@H](CC(=O)O)NC(C)=O)[C@@H](C)CC)C(C)C)C(=O)NCc1ccccc1 [Compound 234] (Ac-D[dE]IV[Hyp](Bn)[X10]-NHBn) | 3.7
CCCN(NC(=O)[C@@H]1C[C@@H](OCc2ccccc2)CN1C(=O)[C@@H](NC(=O)[C@@H](NC(C)=O)C1CCCCC1)C(C)C)C(=O)C(=O)O [Compound 227] | 39.5
CCCN(NC(=O)[C@@H]1C[C@@H](OCc2ccccc2)CN1C(=O)[C@@H](NC(=O)[C@@H](NC(=O)[C@@H](CCC(=O)O)NC(=O)[C@H](CC(=O)O)NC(C)=O)[C@@H](C)CC)C(C)C)C(=O)[C@H](O)c1ccccc1 [Compound 216] (Ac-D[dE]IV[Hyp](Bn)-X11) | 9.6
CCCN(NC(=O)[C@@H]1C[C@@H](OCc2ccccc2)CN1C(=O)[C@@H](NC(=O)[C@@H](NC(=O)[C@@H](CCC(=O)O)NC(=O)[C@H](CC(=O)O)NC(C)=O)[C@@H](C)CC)C(C)C)C(N)=O [Compound 209] (Ac-D[dE]IV[Hyp](Bn)-X13) | 20.5
CCCN(NC(=O)[C@@H]1CCCN1C(=O)[C@@H](NC(=O)[C@@H](NC(=O)[C@@H](CC(=O)O)NC(=O)CCC(=O)O)[C@@H](C)CC)C(C)C)C(=O)N[C@@H](C)c1ccccc1 [Compound 220] (Suc-[dD]IVP[azaNva]-{NH(1S-phenylethyl)}) | 6.9
CCCN(NC(=O)[C@@H]1C[C@@H](OCc2ccccc2)CN1C(=O)[C@@H](NC(=O)[C@@H](NC(=O)[C@@H](CCC(=O)O)NC(=O)[C@H](CC(=O)O)NC(C)=O)[C@@H](C)CC)C(C)C)C(=O)N1CCc2ccccc21 [Compound 226] (Ac-D[dE]IV[Hyp](Bn)[azaNva]-X14) | 6.3
CCCN(NC(=O)[C@@H]1C[C@@H](OCc2ccccc2)CN1C(=O)[C@@H](NC(=O)[C@@H](NC(=O)[C@@H](CCC(=O)O)NC(=O)[C@H](CC(=O)O)NC(C)=O)[C@@H](C)CC)C(C)C)C(=O)NCc1ccccc1 [Compound 203] (Ac-D[dE]IV[Hyp](Bn)[azaNva]-NHBn) | 0.59
CCCC(NC(=O)[C@@H]1C[C@@H](OCc2ccccc2)CN1C(=O)[C@@H](NC(=O)[C@@H](NC(=O)[C@@H](CCC(=O)O)NC(=O)[C@H](CC(=O)O)NC(C)=O)[C@@H](C)CC)C(C)C)C(N)=O (some centres unmarked) [Compound 105] (Ac-D[dE]IV[Hyp](Bn)[ξNva]-NH2) | 54
CCCC(NC(=O)[C@@H]1C[C@@H](OCc2ccccc2)CN1C(=O)[C@@H](NC(=O)[C@@H](NC(C)=O)C1CCCCC1)C(C)C)C(=O)C(=O)NCc1ccncc1 (some centres unmarked) [Compound 116] | 25
CCCC(NC(=O)[C@@H]1C[C@@H](OCc2ccccc2)CN1C(=O)[C@@H](NC(=O)[C@@H](NC(=O)[C@@H](CCC(=O)O)NC(=O)[C@H](CC(=O)O)NC(C)=O)[C@@H](C)CC)C(C)C)C(=O)N1CCc2ccccc2C1 (some centres unmarked) [Compound 111] (Ac-D[dE]IV[Hyp](Bn)[ξNva]-{Tetrahydroisoquinolin(2-yl)}) | 20
CCCN(NC(=O)[C@@H]1C[C@@H](OCc2ccccc2)CN1C(=O)[C@@H](NC(=O)[C@@H](NC(=O)[C@@H](CCC(=O)O)NC(=O)[C@H](CC(=O)O)NC(C)=O)[C@@H](C)CC)C(C)C)C(=O)N(C)Cc1ccccc1 [Compound 223] (Ac-D[dE]IV[Hyp](Bn)[azaNva]-{NMe(benzyl)}) | 11

Same assay, conditions: IC50: concentration required to obtain 50% inhibition in the NS3 protease/NS4A cofactor peptide radiometric assay, enzyme:cofactor 1:100, 40 min at 23° C.

Compound | IC50 [µM]
CCCC(NC(=O)[C@@H]1C[C@@H](OCc2ccccc2)CN1C(=O)[C@@H](NC(=O)[C@@H](NC(=O)[C@@H](CCC(=O)O)NC(=O)[C@H](CC(=O)O)NC(C)=O)[C@@H](C)CC)C(C)C)P(=O)(Oc1ccccc1)Oc1ccccc1 (single isomer, unassigned) [Compound 302] | 26
